Bridge positions count the residues as written; N and C are the ends. Square brackets hold non-standard residues; d marks the D form. Peptide text beside a SMILES is read from it. I, II: the chains in the order shown. Dap = NC[C@H](N)C(=O)O; Ahx = NCCCCCC(=O)O
What was measured:
[1] = system: HaCaT human keratinocytes; assay: Cytotoxicity (WST-1 and LDH); type: cell-based
Description: (§1) Cells (5 × 10^5 cells/mL) were seeded in 96-well plates (100 μL/well; Thermo Scientific) and allowed to adhere for 24 h. After adhesion, monolayers were exposed to two-fold serial dilutions of the tetrameric and reference peptides (final concentrations: 60–0.05 µM) in fresh DMEM containing 2% (v/v) FBS, and incubated for 24 h at 37 °C in a humidified 5% CO2 atmosphere. Cell viability was assessed using the water-soluble tetrazolium salt (WST-1; Roche) assay, and membrane integrity was measured using the lactate dehydrogenase (LDH) release assay (Abcam), following manufacturer instructions. Absorbance was measured using the Synergy H1 microplate reader (Biotek). Results are expressed as percentages relative to untreated control (for WST-1) and positive lysis control (for LDH) and all experiments were performed in triplicate.

[2] = system: human skin fibroblast cells (BJ); assay: Cytotoxicity (WST-1 and LDH); type: cell-based
Description: as §1

[3] = system: Staphylococcus aureus JAR060131; type: cell-based; conditions: JAR060131, 18 h
Description: Bactericidal activity was assessed as previously described ([Breij et al., 2018]). Briefly, mid-logarithmic phase bacterial cultures were diluted in RPMI to 1 × 10^7 CFU/mL. For fungicidal assays, fungal cultures were prepared in RPMI supplemented with 1% glucose (Merck) and diluted to 2–5 × 10^5 CFU/mL. For each condition, 10 µL of the suspension was added to 90 µL of peptide-containing RPMI or RPMI supplemented with 50% (v/v) pooled human plasma (hereafter referred to as 50% plasma; final bacterial concentration 1 × 10^6 CFU/mL, final fungal concentration 2–5 × 10^4 CFU/mL. Human plasma from four healthy volunteers (Sanquin, Netherlands) was pooled, and stored at −20 °C until use. Peptides were tested similarly for fungicidal activity, after 18 h of incubation at 37 °C with shaking (120 rpm) under humidified conditions, bacterial and fungal survival was determined by plating 10 µL aliquots onto BA plates. Assays were performed in duplicate in round-bottom polypropylene microtiter plates (Costar) and repeated independently three times. Untreated controls included bacteria exposed to RPMI alone or RPMI with 50% plasma. Bactericidal and fungicidal activity was expressed as the lethal concentration 99.9% (LC99.9), defined as the lowest peptide concentration causing ≥99.9% reduction in numbers of CFU compared to the initial inoculum.

[4] = system: TNF-α production by dTHP-1 macrophages stimulated with UV-inactivated S. aureus JAR060131; assay: Endotoxin neutralization, UV-inactivated S. aureus-stimulated macrophages; type: cell-based; conditions: MOI 2 with 1 or 2 µM peptide, 4 h, ELISA, versus NT
Description: The endotoxin-neutralizing capacity of the peptides was assessed by measuring tumor necrosis factor-alpha (TNF-α) production by dTHP-1 macrophages. dTHP-1 macrophages were stimulated with either lipopolysaccharide (LPS; E. coli O111:B4; 5 ng/mL, Sigma-Aldrich) or UV-inactivated S. aureus JAR060131 (MOI 2; as described in Section 5.2), in the presence or absence of one or 2 µM peptides. Cells were cultured in serum-free RPMI and incubated for 4 h at 37 °C with 5% CO2. Positive controls consisted of cells stimulated with LPS or UV-S. aureus without peptide treatment (no treatment, NT), and unstimulated cells served as negative controls. After stimulation, cell supernatants were collected, and cytokine levels of TNF-α were quantified using human ELISA kits (R&D Systems, USA) according to the manufacturer’s instructions. Each condition was tested in triplicate.

HaCaT keratinocytes = assay: In vitro scratch wound assay; type: cell-based, human; conditions: 1 µM peptide (TGF-β 20 ng/mL); for Percentage of wound closure: 60 h (legend: 64 h); for Percentage of wound closure / Rate of cell migration: versus no treatment
Description: Cell migration following injury was assessed using an in vitro scratch assay with the IncuCyte wound maker tool (Sartorius). HaCaT keratinocytes were seeded in 96-well ImageLock plates (Sartorius) at 3 × 10^5 cells/well (100 µL) in DMEM supplemented with 10% FBS and incubated at 37 °C, 5% CO2 for 48 h, with medium change at 24 h, until confluence. Uniform scratches were introduced using the wound maker tool according to the manufacturer’s instructions. After wounding, wells were washed twice with 100 µL PBS to remove cell debris. Cells were then treated with 1 µM peptides in serum-free DMEM, to focus specifically on cell migration from the wound edges. The absence of serum minimizes interference with peptide activity. Transforming growth factor-beta (TGF-β; human; 20 ng/mL; Sigma-Aldrich) and 5% dimethyl sulfoxide (DMSO; Sigma-Aldrich) were used as positive and negative controls, respectively. Additional controls included serum-free DMEM (no-treatment control) and 50% (v/v) acetonitrile in Milli-Q water as solvent control. Wound closure was monitored using the IncuCyte S3 live-cell imaging system (Sartorius) with bright-field microscopy. Images were captured every 6 h for up to 60 h. Image analysis was performed using ImageJ software (version 1.53t, NIH, USA) with the “Wound Healing” plugin, as described by Suarez Arnedo et al. ([Suarez-Arnedo et al., 2020]). Quantitative parameters included wound width (µm), percent wound closure, and migration rate (µm/hour).

A. baumannii RUH875 = assay: Bactericidal (time-kill) kinetics; type: cell-based, Acinetobacter baumannii; conditions: for Time to complete killing: 3.75 µM peptide
Description: Time-kill kinetics were evaluated against S. aureus JAR060131 and A. baumannii RUH875. Mid-logarithmic phase bacterial cultures were diluted to a final concentration of 1 × 10^6 CFU/mL in PBS. Bacteria were incubated with 0.5-, 2-, and 4-fold the LC99.9. Assays were conducted in polypropylene tubes (Micronics) with a total volume of 500 µL. Control samples consisted of bacteria incubated in PBS alone. At 1, 5, 30, and 120 min, 50 µL samples were collected and immediately added to 50 µL of 0.05% (v/v) sodium polyanethol sulfonate (SPS; Sigma-Aldrich) in PBS to neutralize residual peptide activity ([Dankert et al., 1995]). Viable bacterial counts were determined by plating 10 µL of serial 10-fold dilutions onto BA plates. Colonies were counted after 24 h of incubation at 37 °C. All conditions were performed in triplicate.

| SMILES | Cytotoxicity threshold (tolerance), WST-1 and LDH [1] [µM] | Cytotoxicity, LDH leakage [1] [µM] | Cytotoxicity, Metabolic activity [1] [µM] | Cytotoxicity threshold (tolerance), WST-1 and LDH [2] [µM] | Cytotoxicity, LDH leakage [2] [µM] | Cytotoxicity, Metabolic activity [2] [µM] | LC99.9 [3] [µM] | Reduction of TNFα production induced by UV-inactivated S. aureus [4] | Percentage of wound closure (HaCaT keratinocytes) | Rate of cell migration (HaCaT keratinocytes) | Time to complete killing (A. baumannii RUH875) [min] | Log reduction in CFU (A. baumannii RUH875; within 1 min at 3.75 µM) [log] | Wound width reduction (HaCaT keratinocytes; serum-free DMEM, versus untreated control) |
| --- | --- | --- | --- | --- | --- | --- | --- | --- | --- | --- | --- | --- | --- |
| N=C(N)NCCC[C@H](NC(=O)[C@H](Cc1c[nH]c2ccccc12)NC(=O)[C@H](CCC(N)=O)NC(=O)[C@H](Cc1c[nH]c2ccccc12)NC(=O)[C@H](CCCNC(=N)N)NC(=O)[C@@H](N)CCCNC(=N)N)C(=O)NC[C@H](NC(=O)[C@H](CCCNC(=N)N)NC(=O)[C@H](Cc1c[nH]c2ccccc12)NC(=O)[C@H](CCC(N)=O)NC(=O)[C@H](Cc1c[nH]c2ccccc12)NC(=O)[C@H](CCCNC(=N)N)NC(=O)[C@@H](N)CCCNC(=N)N)C(=O)NCCCCCC(=O)N[C@@H](CSSC[C@H](NC(=O)CCCCCNC(=O)[C@H](CNC(=O)[C@H](CCCNC(=N)N)NC(=O)[C@H](Cc1c[nH]c2ccccc12)NC(=O)[C@H](CCC(N)=O)NC(=O)[C@H](Cc1c[nH]c2ccccc12)NC(=O)[C@H](CCCNC(=N)N)NC(=O)[C@@H](N)CCCNC(=N)N)NC(=O)[C@H](CCCNC(=N)N)NC(=O)[C@H](Cc1c[nH]c2ccccc12)NC(=O)[C@H](CCC(N)=O)NC(=O)[C@H](Cc1c[nH]c2ccccc12)NC(=O)[C@H](CCCNC(=N)N)NC(=O)[C@@H](N)CCCNC(=N)N)C(N)=O)C(N)=O [LBT-1] (I: H-RRWQWR[Dap][Ahx]C-NH2 / II: H-RRWQWR[Dap][Ahx]C-NH2 / III: H-RRWQWR / IV: H-RRWQWR; amide I:7-III:C, II:7-IV:C; disulfide I:9-II:9; N-terminus and C-terminus assumed) | 15 | 15 | 15 | 7.5 to 15 | 7.5 | 15 | 0.47 | not observed | significant wound closure | ns | ≤ 30 | > 3 |  |
| N=C(N)NCCC[C@H](NC(=O)[C@H](Cc1c[nH]c2ccccc12)NC(=O)[C@H](CCC(N)=O)NC(=O)[C@H](Cc1c[nH]c2ccccc12)NC(=O)[C@H](CCCNC(=N)N)NC(=O)[C@@H](N)CCCNC(=N)N)C(=O)NCCCC[C@H](NC(=O)[C@H](CCCNC(=N)N)NC(=O)[C@H](Cc1c[nH]c2ccccc12)NC(=O)[C@H](CCC(N)=O)NC(=O)[C@H](Cc1c[nH]c2ccccc12)NC(=O)[C@H](CCCNC(=N)N)NC(=O)[C@@H](N)CCCNC(=N)N)C(=O)NCCCCCC(=O)N[C@@H](CSSC[C@H](NC(=O)CCCCCNC(=O)[C@H](CCCCNC(=O)[C@H](CCCNC(=N)N)NC(=O)[C@H](Cc1c[nH]c2ccccc12)NC(=O)[C@H](CCC(N)=O)NC(=O)[C@H](Cc1c[nH]c2ccccc12)NC(=O)[C@H](CCCNC(=N)N)NC(=O)[C@@H](N)CCCNC(=N)N)NC(=O)[C@H](CCCNC(=N)N)NC(=O)[C@H](Cc1c[nH]c2ccccc12)NC(=O)[C@H](CCC(N)=O)NC(=O)[C@H](Cc1c[nH]c2ccccc12)NC(=O)[C@H](CCCNC(=N)N)NC(=O)[C@@H](N)CCCNC(=N)N)C(N)=O)C(N)=O [LBT] (I: H-RRWQWRK[Ahx]C-NH2 / II: H-RRWQWRK[Ahx]C-NH2 / III: H-RRWQWR / IV: H-RRWQWR; amide I:7-III:C, II:7-IV:C; disulfide I:9-II:9; N-terminus and C-terminus assumed) |  | 30 | 30 |  | 15 | 30 | 0.47 | not observed | significant wound closure | highest migration (p < 0.05) | 120 |  | significantly reduced wound width |

From paper PMC12705620 (Frontiers in Pharmacology, 2025)
